# According to ChEMBL document CHEMBL5096145, “Evaluation of imidazo[2,1-b]thiazole-based anticancer agents in one decade (2011-2020): Current status and future prospects” (Bioorg Med Chem, 2021):
# Key:
# [1] = tested on: A549; test: Anticancer activity against human A549 cells incubated for 24 hrs by MTT assay; format: functional, cell-based; details: A549, 24 h
# [2] = tested on: A549; test: Induction of apoptosis in human A549 cells assessed as increase in caspase-3 level at 1 uM measured after 48 hrs by ELISA method relative to control (RVB = 9.1 %); format: functional
# [3] = tested on: A549; test: Induction of apoptosis in human A549 cells assessed as increase in caspase-3 level at 0.5 uM measured after 48 hrs by ELISA method relative to control; format: functional
# [4] = molecular target: Tubulin; test: Inhibition of tubulin polymerization (unknown origin) by fluorescence based assay; format: protein-complex assay, Homo sapiens
# [5] = tested on: OVCAR-5; test: Cytotoxicity against human OVCAR-5 cells assessed as inhibition of cell growth; format: functional, cell-based
# [6] = tested on: MDA-MB-231; test: Antiproliferative activity against human MDA-MB-231 cells measured after 48 hrs by MTT assay; format: functional, cell-based; details: MDA-MB-231, 48 h
# [7] = tested on: MIA PaCa-2; test: Antiproliferative activity against human MIAPaCa-2 cells measured after 24 to 48 hrs by SRB staining based assay; format: functional, cell-based
# [8] = tested on: A549; test: Antiproliferative activity against human A549 cells incubated for 48 hrs by MTT assay; format: functional, cell-based; details: A549, 48 h
# [9] = tested on: A549; test: Inhibition of tubulin polymerisation in human A549 cells relative to control; format: cell-based; details: dose or concentration not given here
# [10] = tested on: MCF7; test: Antiproliferative activity human MCF7 cells; format: functional, cell-based
# [11] = tested on: A549; test: Antiproliferative activity human A549 cells; format: functional, cell-based
# [12] = Inhibition of tubulin polymerisation in human A549; format: cell-based
# [13] = tested on: MDA-MB-231; test: Antiproliferative activity human MDA-MB-231 cells; format: functional, cell-based
# [14] = tested on: MCF7; test: Antiproliferative activity against human MCF7 cells measured after 48 hrs by MTT assay; format: functional, cell-based; details: MCF7, 48 h
# [15] = tested on: HepG2; test: Antiproliferative activity against human HepG2 cells measured after 48 hrs by MTT assay; format: functional, cell-based; details: HepG2, 48 h
# [16] = tested on: HeLa; test: Antiproliferative activity against human HeLa cells measured after 48 hrs by MTT assay; format: functional, cell-based
# [17] = tested on: Ovarian cancer cell line; test: Cytotoxicity against human ovarian cancer cell line assessed as reduction in cell viability by MTT assay relative to control; format: functional
# [18] = Cytotoxicity against human Colon carcinoma cells assessed as reduction in cell viability by MTT assay relative to control; format: functional
# [19] = tested on: A-375; test: Cytotoxicity against human A-375 cells by MTT assay; format: functional, cell-based
# [20] = Cytotoxicity against human L132 cells by MTT assay; format: toxicity, cell-based
# [21] = tested on: Prostatic carcinoma cell; test: Cytotoxicity against human prostatic carcinoma cell assessed as reduction in cell viability by MTT assay relative to control; format: functional
# [22] = tested on: Breast carcinoma cell; test: Cytotoxicity against human breast cancer cell line assessed as reduction in cell viability by MTT assay relative to control; format: functional
# [23] = tested on: CNS carcinoma cell; test: Cytotoxicity against human CNS carcinoma cells assessed as reduction in cell viability by MTT assay relative to control; format: functional
# [24] = tested on: Renal cancer cell line; test: Cytotoxicity against human renal cancer cell line assessed as reduction in cell viability by MTT assay relative to control; format: functional
# [25] = tested on: Leukemic tumor cell line; test: Cytotoxicity against human leukemic tumor cell line assessed as reduction in cell viability by MTT assay relative to control; format: functional
# [26] = tested on: Non-small cell lung cancer cell line; test: Cytotoxicity against human non-small cell lung cancer cell line assessed as reduction in cell viability by MTT assay relative to control; format: functional
# [27] = molecular target: Serine/threonine-protein kinase B-raf (Homo sapiens, UniProt P15056, V600E); test: Inhibition of human BRAF V600E mutant using MEK1 as substrate in presence of ATP
# Serine/threonine-protein kinase B-raf, sequence (P15056 2-766 V600E limits assumed): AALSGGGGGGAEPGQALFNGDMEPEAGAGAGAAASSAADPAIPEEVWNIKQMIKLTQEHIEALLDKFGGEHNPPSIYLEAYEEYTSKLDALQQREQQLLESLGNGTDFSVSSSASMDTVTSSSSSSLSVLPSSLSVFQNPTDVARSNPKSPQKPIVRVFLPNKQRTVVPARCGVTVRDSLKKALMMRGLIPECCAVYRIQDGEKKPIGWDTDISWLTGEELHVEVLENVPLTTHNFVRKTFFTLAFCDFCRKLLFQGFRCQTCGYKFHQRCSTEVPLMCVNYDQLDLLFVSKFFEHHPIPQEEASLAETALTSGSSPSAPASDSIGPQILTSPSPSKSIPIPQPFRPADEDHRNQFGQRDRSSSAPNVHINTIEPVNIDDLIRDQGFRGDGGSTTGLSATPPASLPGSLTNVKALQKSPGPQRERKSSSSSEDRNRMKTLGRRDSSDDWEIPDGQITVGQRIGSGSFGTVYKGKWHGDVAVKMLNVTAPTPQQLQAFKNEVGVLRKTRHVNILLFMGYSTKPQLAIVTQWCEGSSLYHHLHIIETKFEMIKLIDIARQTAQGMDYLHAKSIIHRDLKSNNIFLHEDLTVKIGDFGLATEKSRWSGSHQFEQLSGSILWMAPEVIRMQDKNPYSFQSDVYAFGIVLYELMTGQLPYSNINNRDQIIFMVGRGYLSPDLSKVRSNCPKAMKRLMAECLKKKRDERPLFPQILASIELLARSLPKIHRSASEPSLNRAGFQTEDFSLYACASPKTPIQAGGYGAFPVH
# [28] = tested on: Melanoma tumor cell line; test: Cytotoxicity against human melanoma tumor cell line assessed as reduction in cell viability by MTT assay relative to control; format: functional
# [29] = tested on: DU-145; test: Potency index, ratio of sorafenib IC50 to test compound IC50 for cytotoxicity against human DU-145 cells; format: functional
# [30] = tested on: DU-145; test: Cytotoxicity against human DU-145 cells assessed as reduction in cell viability; format: functional, cell-based
# [31] = tested on: HT-29; test: Cytotoxicity against human HT-29 cells assessed as reduction in cell viability relative to control; format: functional
# [32] = tested on: HeLa; test: Cytotoxicity against human HeLa cells expressing EGFR assessed as reduction in cell viability incubated for 24 hrs by MTT assay; format: functional, cell-based
# [33] = tested on: L02; test: Cytotoxicity against human HL7702 cells expressing EGFR assessed as reduction in cell viability incubated for 24 hrs by MTT assay; format: functional, cell-based; details: L02, 24 h
# [34] = tested on: HUVEC; test: Cytotoxicity against HUVEC expressing EGFR assessed as reduction in cell viability incubated for 24 hrs by MTT assay; format: functional, cell-based; details: Homo sapiens
# [35] = tested on: HepG2; test: Cytotoxicity against human HepG2 cells expressing EGFR assessed as reduction in cell viability incubated for 24 hrs by MTT assay; format: functional, cell-based; details: HepG2, 24 h
# [36] = tested on: A549; test: Induction of cell cycle arrest in human A549 cells assessed as accumulation of cells at G2/M phase at 1 uM by flow cytometric analysis relative to control; format: functional
# [37] = tested on: A549; test: Induction of cell cycle arrest in human A549 cells assessed as accumulation of cells at G2/M phase at 2 uM by flow cytometric analysis relative to control; format: functional
# [38] = tested on: A549; test: Induction of apoptosis in human A549 cells at 1 uM measured after 48 hrs by Annexin V-FITC analysis; format: functional
# [39] = tested on: A549; test: Induction of apoptosis in human A549 cells at 2 uM measured after 48 hrs by Annexin V-FITC analysis; format: functional
smiles,measurement,setting,value
COc1ccc(-c2sc3nc(-c4ccc(F)cc4)c(/C=C/C(=O)c4ccccn4)n3c2-c2ccc(OC)cc2)cc1,IC50,[1],640 nM
same,Activity,[2],69.07%
same,Activity,[3],64.14%
same,IC50,[4],2350 nM
COc1ccc(-c2nc3sccn3c2/C=C/C(=O)c2cc(OC)c(OC)c(OC)c2)cc1,IC50,[5],1990 nM
COc1ccc2c(c1)sc1nc(/C=C/C(=O)c3ccc(OC)c(O)c3)cn12,IC50,[6],1300 nM
COc1ccc2c(c1OCc1csc3nc(-c4cc(C)c(Br)s4)cn13)C(=O)OC2C1c2c(cc3c(c2OC)OCO3)CCN1C (stereo not drawn),IC50,[7],3600 nM
COC(=O)Nc1nc2cc(C(=O)c3cccs3)ccc2[nH]1 [NOCODAZOLE],IC50,[8],1810 nM
same,inhibition,[9],64.7%
same,Activity,[2],62.9%
same,IC50,[10],2370 nM
same,IC50,[6],1900 nM
same,IC50,[11],1140 nM
same,IC50,[12],1990 nM
same,IC50,[13],2370 nM
O=C1NC(=S)NC(=O)C1=Cc1c(-c2ccc(Cl)cc2)nc2scc(-c3cc4ccccc4oc3=O)n12,IC50,[14],17000 nM
same,IC50,[15],13900 nM
same,IC50,[16],5180 nM
O=[N+]([O-])c1cccc(-c2nc3sccn3c2-c2ccnc(NCCCNS(=O)(=O)c3ccc(F)cc3)n2)c1,inhibition (INH),[17],>80%
same,inhibition (INH),[18],>80%
same,IC50,[19],7960 nM
same,IC50,[20],76000 nM
same,inhibition (INH),[21],>90%
same,inhibition (INH),[22],>80%
same,inhibition (INH),[23],70%
same,inhibition (INH),[24],>70%
same,inhibition (INH),[25],>90%
same,inhibition (INH),[26],>80%
same,IC50,[27],35 nM
same,inhibition (INH),[28],100%
COc1ccc(C(=O)NCCNc2nccc(-c3c(-c4ccc(F)cc4)nc4sccn34)n2)cc1,Ratio IC50,[29],3
same,IC50,[30],1040 nM
same,inhibition (INH),[31],85.38%
O=C(/C=C\Nc1cnc2ccccc2c1)c1c(-c2ccccc2)nc2sccn12,IC50,[10],4600 nM
same,IC50,[11],400 nM
same,IC50,[13],4600 nM
O=C(Cc1csc2nc3ccccc3n12)Nc1ccccc1O,IC50,[32],420 nM
same,IC50,[33],> 100000 nM
same,IC50,[34],> 100000 nM
same,IC50,[35],> 100000 nM
CCCS(=O)(=O)Nc1ccc(F)c(C(=O)c2c[nH]c3ncc(-c4ccc(Cl)cc4)cc23)c1F [VEMURAFENIB],IC50,[19],5900 nM
COc1ccc(-c2nc3sccn3c2-c2nc3ccc(C(F)(F)F)cc3[nH]2)cc1,IC50,[8],1080 nM
same,inhibition,[9],68.1%
same,Activity,[36],15.1%
same,Activity,[37],56.3%
same,Activity,[38],14.94%
same,IC50,[12],1680 nM
same,Activity,[39],43.62%
